Laboratory results taken from doi:10.1101/2024.10.09.617372v4, “Cholesterol differentially modulates the activity of opioid and muscarinic receptors via a common binding site” (biorxiv, 2025).

Biological target: T1, M2 muscarinic receptor (M2) (Homo sapiens, UniProt P08172)
T1 construct: gene CHRM2; full-length human receptor, cDNA from Missouri S&T cDNA Resource Center, expressed in CHO cells; membranes
T1 sequence (P08172 1-466): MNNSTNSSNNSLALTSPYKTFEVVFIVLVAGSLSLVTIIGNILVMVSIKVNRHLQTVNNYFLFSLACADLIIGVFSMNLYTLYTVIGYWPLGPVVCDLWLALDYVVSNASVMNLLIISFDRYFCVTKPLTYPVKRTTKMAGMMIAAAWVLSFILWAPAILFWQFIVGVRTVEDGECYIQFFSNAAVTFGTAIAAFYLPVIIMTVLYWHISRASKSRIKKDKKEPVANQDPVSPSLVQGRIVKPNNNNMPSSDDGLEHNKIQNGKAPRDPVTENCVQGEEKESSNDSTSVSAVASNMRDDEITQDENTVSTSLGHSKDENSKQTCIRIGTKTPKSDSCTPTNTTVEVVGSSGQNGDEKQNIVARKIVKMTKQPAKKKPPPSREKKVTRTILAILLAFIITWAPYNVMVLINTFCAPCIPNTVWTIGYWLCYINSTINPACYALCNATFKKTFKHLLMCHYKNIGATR
Test: radioligand saturation binding, CHO membranes
Conditions: labelled compound; […] h, […] °C, pH […]

Structure (SMILES): C[N+]1(C)[C@@H]2C[C@@H](OC(=O)[C@H](CO)c3ccccc3)C[C@H]1[C@@H]1O[C@@H]12 [[3H]N-methylscopolamine]
- KD: equilibrium dissociation constant KD, expressed in nM, of [^3H]NMS (muscarinic)
